Measurements: patent US10100307B2, “Use of a reverse-transcriptase inhibitor in the prevention and treatment of degenerative diseases” (Centre National de la Recherche Scientifique, priority 2014, dated 2018)

Key:
[1] = test system: TH+ neurons in the substantia nigra pars compacta; test: 6-OHDA injection into the substantia nigra (oxidative stress in vivo), stereological count of TH+ neurons; set-up: species or system mice; conditions: 24 h after injection of 6-OHDA; Stavudine 10 μM injected 30 min before and with 6-OHDA; FIG. 3B; **p<0.01, n=5
Procedure: For the 6-OHDA (6-hydroxydopamine) injections, anesthetized mice were placed on a stereotactic device and a burr hole was drilled in the cranium, 3.3 mm caudally and 1 mm laterally from the bregma. The needle of the syringe was aligned over the hole and descended 4 mm from the surface of the cranium, and 6-OHDA (2 μl; 0.8 μg/μl Sigma) or control (NaCl 0.9%) was injected into the SNpc for more than 4 min. For the immunohistological analysis, the mice were sacrificed 6 h, 24 h or 7 days after 6-OHDA injection. For the qRT-PCR analyses, tissues from the SNpc 6 h after 6-OHDA injection were obtained by extracting 1 mm samples from 2 mm thick disks of frozen tissue, using a stereotactic apparatus. The tissues were embedded in OCT, frozen in cooled isopentane, then preserved at -80° C. before being sectioned. 20 μm thick sections of the brain at the SNpc were made. […] The labeled brain sections were visualized using a confocal fluorescence microscope (SP5, Leica). […] The microscopy images were analyzed using the VisioScan T4.18 software (ExploraNova, La Rochelle, France) as described previously ([…]. 2003). The cell numbers were quantified stereologically on sections spaced apart regularly covering all of the rostrocaudal extent of the substantia nigra, using the VisioScan stereology tool. […]

primary midbrain neurons = test: Formation of DNA breaks induced by transfection with a plasmid (wt L1) overexpressing LINE-1; assay type: cell-based, mouse; conditions: Stavudine 10 μM added 24 hours before and during lipofection; FIG. 2B; ***p<0.001, n=6
Procedure: (§1) Embryonic midbrain neurons (embryonic day 13.5) are cultured in NBGK medium (Neurobasal® (Life Technologies) supplemented with glutamine (500 μM, SIGMA), glutamic acid (3.3 mg/ml, SIGMA), aspartic acid (3.7 mg/ml, SIGMA), anti-anti and B27® (GIBCO)). A midbrain neuron culture was incubated overnight in the presence of Stavudine (10 μM in 0.9% NaCl). A control culture was treated under the same conditions, with a solution of NaCl (0.9%). The following day, the culture medium was replaced with Neurobasal® medium (Life Technologies) not supplemented with B27® (Life Technologies), containing 5 μM of H2O2 and 10 μM Stavudine/NaCl, for 1 h (FIG. 2). Alternatively, the cells were treated with H2O2 (100 μM) in the presence of B27 for one hour. Stavudine (10 μM) was added twice, 24 hours before and during treatment with H2O2 or lipofection (FIG. 2). The neurons were then fixed with PBS 4% paraformaldehyde (PFA) for 20 min, then treated with glycine (100 mM) in PBS for 10 min. […] The number of gamma-H2AX foci per neuron was counted on several slides, then the mean was taken over more than 30 neurons. […]

[2] = test system: Mouse embryonic midbrain neurons; test: Formation of DSBs (gamma-H2AX foci per neuron) induced by H2O2 oxidative stress in vitro; assay type: cell-based; conditions: Stavudine 10 μM; gamma-H2AX labeling; H2O2 for 1 h; FIG. 2A; ***p<0.001, n=6
Procedure: as §1
Mouse embryonic midbrain neurons (14 days' gestation), treated or untreated with an RT inhibitor (Stavudine), were subjected to an oxidative stress by addition of H2O2. […] The number of DSBs per neuron was evaluated after γ-H2AX labeling.

## Cc1cn([C@H]2C=C[C@@H](CO)O2)c(=O)[nH]c1=O [Stavudine, 2′-3′-didehydro-2′-3′-dideoxythymidine]
[1]
  number of TH+ neurons in the substantia nigra pars compacta (cell death after oxidative stress in vivo): higher
Primary midbrain neurons
  formation of DNA breaks induced by wt L1 plasmid overexpressing LINE-1: suppressed
[2]
  reduction of the formation of DSBs induced by H2O2: 40%
